Here are results for 17 molecules from patent US8742106B2 (Novartis AG, priority 2009, dated 2014).

Broadly, the Ki is a dissociation constant, usually derived from enzyme kinetics or from competition with a known ligand. A word on the Kd: it is the constant that tells how readily two partners part at equilibrium.

Structures are written as SMILES.

Test [1] addresses T1, human orexin 2 receptors (Homo sapiens (Human), UniProt O43614). The experiment in a line: Calcium Accumulation in Cells (FLIPR), antagonism of orexin A. The note with it: antagonism of orexin A, Cheng-Prusoff corrected; read-out: FLIPR hOx2R Ki. It is filed as cell-based. An outline of the steps: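 Antagonism was measured as block of orexin A-evoked Ca²⁺ fluorescence (FLIPR), with orexin A added one hour after test compound (usually 10^−9–10^−5 M), which was first read alone for agonist activity. Human orexin 2 receptor cells were dye-loaded with 2 μM Fluo4-AM and 0.1 mM probenecid for 1 h.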

Test [2] deals with T2, human orexin 1 receptors (Homo sapiens (Human), UniProt O43613). Described as above. It is filed as cell-based. To be noted: antagonism of orexin A, Cheng-Prusoff corrected; read-out: FLIPR hOx1R Ki.
T2 sequence (O43613 whole entry): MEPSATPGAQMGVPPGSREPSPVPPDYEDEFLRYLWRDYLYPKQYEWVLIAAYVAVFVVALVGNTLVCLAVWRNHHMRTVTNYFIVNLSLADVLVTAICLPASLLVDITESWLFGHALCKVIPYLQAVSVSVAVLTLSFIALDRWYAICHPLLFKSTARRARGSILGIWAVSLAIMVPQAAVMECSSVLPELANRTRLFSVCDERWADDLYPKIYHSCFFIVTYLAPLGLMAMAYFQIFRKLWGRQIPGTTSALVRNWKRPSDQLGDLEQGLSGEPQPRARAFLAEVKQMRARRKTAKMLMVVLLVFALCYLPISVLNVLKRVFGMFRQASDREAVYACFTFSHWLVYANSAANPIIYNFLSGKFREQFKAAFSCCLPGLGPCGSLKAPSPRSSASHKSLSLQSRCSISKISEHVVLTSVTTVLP
Test [3] addresses T2, human orexin 1 receptors. The experiment in a line: Radioligand Binding Assay II ([3H]-SB649868 competition, cell membranes). To be noted: read-out: binding II hOx1R Kd. Here is the method:
(§1) Radioligand Binding Assay II
(§2) For crude cell membrane preparations, cells (CHO, Chinese hamster ovary or HEK, human embryonic kidney) expressing human orexin 1 or human orexin 2 receptors, were washed with HEPES (10 mM, pH 7.5), scraped off the culture plates with the same buffer, and centrifuged at 4° C. for 5 min at 2500×g. The cell pellet was either stored at −80° C. or used directly. Before the experiments, cell membranes were re-suspended in binding assay buffer (10 mM HEPES, 0.5% (w/v) bovine serum albumin, pH 7.5) by homogenisation with a Polytron homogeniser at 50 Hz for 20 s. Cell membranes were also used as made available by commercial providers.
(§3) Bound radioactivity was measured, and data were analysed with the program XLFIT or Graphpad Prism. Protein concentration was determined according to the Bradford/BioRad Protein Assay Kit.
In competition experiments, cell homogenates (150 μl) were incubated in assay buffer (10 mM HEPES, pH 7.5, 0.5% (w/v) bovine serum albumin, 5 mM MgCl2, 1 mM CaCl2, and tween 0.05%) for 1 h at room temperature with about 1 nM of the radioligand [^3H]-SB649868, 66 Ci/mmole, 50 μl), and with various concentrations of compounds of the invention (50 μl) in triplicates; non-specific binding was determined in the presence of almorexant (10 μM). Reactions were terminated by vacuum filtration, 3 washes of ice cold wash buffer (Tris-HCl pH 7.4/10 mM, with NaCl 154 mM). Competition data is expressed in Table 2 as Kd [μM].

Test [4] has as its target T1, human orexin 2 receptors. The description is as above. The note with it: read-out: binding II hOx2R Kd. Here is the method:
as §1, §2, §3
In competition experiments, cell homogenates (150 μl) were incubated in assay buffer (10 mM HEPES, pH 7.5, 0.5% (w/v) bovine serum albumin, 5 mM MgCl2, 1 mM CaCl2, and tween 0.05%) for 1 h at room temperature with about 1 nM of the radioligand [^3H]-SB649868, 66 Ci/mmole, 50 μl), and with various concentrations of compounds of the invention (50 μl) in triplicates; non-specific binding was determined in the presence of almorexant (10 μM). Reactions were terminated by vacuum filtration, 3 washes of ice cold wash buffer (Tris-HCl pH 7.4/10 mM, with NaCl 154 mM).

T1 sequence (O43614 whole entry): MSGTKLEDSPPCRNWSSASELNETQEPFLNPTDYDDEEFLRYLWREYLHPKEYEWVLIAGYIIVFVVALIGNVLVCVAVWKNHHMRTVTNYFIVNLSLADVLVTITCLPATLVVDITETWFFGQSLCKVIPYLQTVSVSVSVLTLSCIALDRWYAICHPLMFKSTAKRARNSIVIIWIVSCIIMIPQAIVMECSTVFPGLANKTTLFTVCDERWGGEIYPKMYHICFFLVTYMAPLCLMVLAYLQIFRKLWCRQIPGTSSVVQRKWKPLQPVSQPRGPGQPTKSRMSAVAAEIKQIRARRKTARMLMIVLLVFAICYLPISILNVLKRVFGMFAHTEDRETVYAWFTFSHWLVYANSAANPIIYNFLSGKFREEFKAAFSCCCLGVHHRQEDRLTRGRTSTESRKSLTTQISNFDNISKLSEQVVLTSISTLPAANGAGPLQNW

For `Cc1ccc2c(n1)CC[C@@H]2NC(=O)COc1cc(C(F)F)c2c(C3CC3)nn(C)c2n1` [Example 6.2, (S)-2-(3-cyclopropyl-4-(difluoromethyl)-1-methyl-1H-pyrazolo[3,4-b]pyridin-6-yloxy)-N-(2-methyl-6,7-dihydro-5H-cyclopenta[b]pyridin-5-yl)acetamide], the results for the inhibition constant (Ki) at human orexin 2 receptors [1] and on human orexin 1 receptors [2] were 50 nM and 284 nM, respectively. For the same molecule, the equilibrium dissociation constant (Kd) is 61 nM at human orexin 1 receptors [3] and 75 nM at human orexin 2 receptors [4].

As for `Cc1ccc(C(C)(C)NC(=O)COc2cc(C)c3c(C4CC4)nn(C)c3n2)cc1` [Example 6.6, 2-(3-cyclopropyl-1,4-dimethyl-1H-pyrazolo[3,4-b]pyridin-6-yloxy)-N-(2-p-tolylpropan-2-yl)acetamide], the inhibition constant (Ki) on human orexin 2 receptors [1] was 47 nM; on human orexin 1 receptors [2] it was 606 nM. The dissociation constant (Kd) was 1010 nM at human orexin 1 receptors [3] and 138 nM on human orexin 2 receptors [4].

As to `COc1ccc([C@H](C)NC(=O)COc2cc(C(F)F)c3c(C4CC4)nn(C)c3n2)cc1` [Example 6.7, (S)-2-(3-cyclopropyl-4-(difluoromethyl)-1-methyl-1H-pyrazolo[3,4-b]pyridin-6-yloxy)-N-(1-(4-methoxyphenyl)ethyl)acetamide], the Ki amounted to 21 nM at human orexin 2 receptors [1] and 68 nM on human orexin 1 receptors [2]. Further, the values for the equilibrium dissociation constant (Kd) on human orexin 1 receptors [3] and on human orexin 2 receptors [4] were 36 nM and 27 nM, respectively.

Regarding `Cc1ccc([C@H](C)NC(=O)COc2cc(C(F)F)c3c(C4CC4)nn(C)c3n2)cc1` [Example 6.8, (S)-2-(3-cyclopropyl-4-(difluoromethyl)-1-methyl-1H-pyrazolo[3,4-b]pyridin-6-yloxy)-N-(1-p-tolylethyl)acetamide], the Ki was determined as 5 nM on human orexin 2 receptors [1] and 14 nM on human orexin 1 receptors [2]. Further, the equilibrium dissociation constant (Kd) on human orexin 1 receptors [3] is 22 nM; on human orexin 2 receptors [4] it was 19 nM.

With `Cc1ccc([C@H](C)NC(=O)COc2cc(C(F)(F)F)c3c(C4CC4)nn(C)c3n2)cc1` [Example 6.13, (S)-2-(3-cyclopropyl-1-methyl-4-(trifluoromethyl)-1H-pyrazolo[3,4-b]pyridin-6-yloxy)-N-(1-p-tolylethyl)acetamide], the figures for the Ki on human orexin 2 receptors [1] and on human orexin 1 receptors [2] were 6 nM and 52 nM, respectively. Moreover, the Kd on human orexin 1 receptors [3] turned out to be 44 nM; on human orexin 2 receptors [4], 14 nM.

Consider `COc1ccc(C(C)NC(=O)COc2cc(C(F)(F)F)c3c(C4CC4)nn(C)c3n2)cn1` (centres unmarked) [Example 6.14, 2-(3-cyclopropyl-1-methyl-4-(trifluoromethyl)-1H-pyrazolo[3,4-b]pyridin-6-yloxy)-N-(1-(6-methoxypyridin-3-yl)ethyl)acetamide], for which the Ki came to 72 nM on human orexin 2 receptors [1] and 523 nM at human orexin 1 receptors [2]. In addition, the Kd at human orexin 1 receptors [3] stood at 428 nM; on human orexin 2 receptors [4] it was 141 nM.

On to `COc1ccc([C@H](C)NC(=O)COc2cc(C(F)(F)F)c3c(C4CC4)nn(C)c3n2)cc1` [Example 6.15, (S)-2-(3-cyclopropyl-1-methyl-4-(trifluoromethyl)-1H-pyrazolo[3,4-b]pyridin-6-yloxy)-N-(1-(4-methoxyphenyl)ethyl)acetamide], for which the figures for the inhibition constant Ki at human orexin 2 receptors [1] and at human orexin 1 receptors [2] were 12 nM and 160 nM, respectively. For the same molecule, the Kd at human orexin 1 receptors [3] came out at 146 nM; on human orexin 2 receptors [4], 37 nM.

On to `COc1ccc([C@H](C)NC(=O)COc2cc(C(F)F)c3c(-c4ccccc4)nn(C)c3n2)cc1` [Example 6.17, (S)-2-(4-(difluoromethyl)-1-methyl-3-phenyl-1H-pyrazolo[3,4-b]pyridin-6-yloxy)-N-(1-(4-methoxyphenyl)ethyl)acetamide], for which the inhibition constant (Ki) is 2 nM at human orexin 2 receptors [1] and 19 nM at human orexin 1 receptors [2]. For the same molecule, the Kd at human orexin 1 receptors [3] came to 11 nM; at human orexin 2 receptors [4] it was 7 nM.

Take `Cc1nn(C)c(C)c1C(C)NC(=O)COc1cc(C(F)F)c2c(-c3ccccc3)nn(C)c2n1` (centres unmarked) [Example 6.20, 2-(4-(difluoromethyl)-1-methyl-3-phenyl-1H-pyrazolo[3,4-b]pyridin-6-yloxy)-N-(1-(1,3,5-trimethyl-1H-pyrazol-4-yl)ethyl)acetamide]: the inhibitory constant (Ki) amounted to 59 nM on human orexin 2 receptors [1] and 63 nM on human orexin 1 receptors [2]. Further, the Kd was 22 nM on human orexin 1 receptors [3] and 90 nM at human orexin 2 receptors [4].

Turning to `Cc1ccc([C@H](C)NC(=O)COc2cc(C(F)F)c3c(-c4ccccc4)nn(C)c3n2)cc1` [Example 6.21, (S)-2-(4-(difluoromethyl)-1-methyl-3-phenyl-1H-pyrazolo[3,4-b]pyridin-6-yloxy)-N-(1-p-tolylethyl)acetamide], the Ki amounted to 7 nM at human orexin 2 receptors [1] and 29 nM on human orexin 1 receptors [2]. Further, the Kd at human orexin 1 receptors [3] was found to be 37 nM; on human orexin 2 receptors [4], 30 nM.

As to `COc1ccc(C(C)NC(=O)COc2cc(C(F)F)c3c(-c4ccccc4)nn(C)c3n2)cn1` (centres unmarked) [Example 6.22, 2-(4-(difluoromethyl)-1-methyl-3-phenyl-1H-pyrazolo[3,4-b]pyridin-6-yloxy)-N-(1-(6-methoxypyridin-3-yl)ethyl)acetamide], the results for the Ki on human orexin 2 receptors [1] and at human orexin 1 receptors [2] were 37 nM and 175 nM, respectively. The results for the Kd on human orexin 1 receptors [3] and at human orexin 2 receptors [4] were 56 nM and 42 nM, respectively.

Take `COc1ccccc1-c1nn(C)c2nc(OCC(=O)N[C@@H](C)c3ccc(C)cc3)ccc12` [Example 6.24, (S)-2-(3-(2-methoxyphenyl)-1-methyl-1H-pyrazolo[3,4-b]pyridin-6-yloxy)-N-(1-p-tolylethyl)acetamide]: the inhibitory constant (Ki) on human orexin 2 receptors [1] worked out at 105 nM; on human orexin 1 receptors [2], 133 nM. Also, the results for the Kd on human orexin 1 receptors [3] and on human orexin 2 receptors [4] were 45 nM and 150 nM, respectively.

`Cc1ccc([C@H](C)NC(=O)COc2ccc3c(C(C)(C)C)nn(C)c3n2)cc1` [Example 6.25, (S)-2-(3-tert-butyl-1-methyl-1H-pyrazolo[3,4-b]pyridin-6-yloxy)-N-(1-p-tolylethyl)acetamide]: the figures for the inhibition constant (Ki) at human orexin 2 receptors [1] and at human orexin 1 receptors [2] were 65 nM and 545 nM, respectively. Also, the figures for the dissociation constant (Kd) at human orexin 1 receptors [3] and on human orexin 2 receptors [4] were 242 nM and 164 nM, respectively.

For the molecule `Cc1ccc([C@H](C)NC(=O)COc2cc(C)c3c(C(C)C)nn(C)c3n2)cc1` [Example 6.26, (S)-2-(3-isopropyl-1,4-dimethyl-1H-pyrazolo[3,4-b]pyridin-6-yloxy)-N-(1-p-tolylethyl)acetamide], the Ki turned out to be 32 nM at human orexin 2 receptors [1] and 164 nM at human orexin 1 receptors [2]. The Kd at human orexin 1 receptors [3] amounted to 119 nM; at human orexin 2 receptors [4], 76 nM.

Regarding `Cc1ccc([C@H](C)NC(=O)COc2cc(C)c3c(-c4cc(C)oc4C)nn(C)c3n2)cc1` [Example 6.30, (S)-2-(3-(2,5-dimethylfuran-3-yl)-1,4-dimethyl-1H-pyrazolo[3,4-b]pyridin-6-yloxy)-N-(1-p-tolylethyl)acetamide], the results for the inhibition constant (Ki) at human orexin 2 receptors [1] and on human orexin 1 receptors [2] were 62 nM and 10 nM, respectively. In addition, the Kd on human orexin 1 receptors [3] is 19 nM; on human orexin 2 receptors [4], 168 nM.

Take `COc1ccc([C@H](C)NC(=O)COc2cc(C)c3c(-c4cc(C)oc4C)nn(C)c3n2)cc1` [Example 6.31, (S)-2-(3-(2,5-dimethylfuran-3-yl)-1,4-dimethyl-1H-pyrazolo[3,4-b]pyridin-6-yloxy)-N-(1-(4-methoxyphenyl)ethyl)acetamide]: the values for the Ki on human orexin 2 receptors [1] and on human orexin 1 receptors [2] were 47 nM and 18 nM, respectively. Also, the Kd at human orexin 1 receptors [3] stood at 40 nM; on human orexin 2 receptors [4], 221 nM.

On to `Cc1cc(-c2nn(C)c3nc(OCC(=O)NC(C)c4c(C)nn(C)c4C)cc(C)c23)c(C)o1` (centres unmarked) [Example 6.33, 2-(3-(2,5-dimethylfuran-3-yl)-1,4-dimethyl-1H-pyrazolo[3,4-b]pyridin-6-yloxy)-N-(1-(1,3,5-trimethyl-1H-pyrazol-4-yl)ethyl)acetamide], for which the figures for the Ki on human orexin 2 receptors [1] and at human orexin 1 receptors [2] were 170 nM and 11 nM, respectively. Further, the values for the Kd at human orexin 1 receptors [3] and at human orexin 2 receptors [4] were 14 nM and 126 nM, respectively.
